Measurements taken from ChEMBL document CHEMBL3994582, “A2B adenosine receptor antagonists: Design, synthesis and biological evaluation of novel xanthine derivatives” (Eur J Med Chem, 2017).
Calls of active or inactive are those of the source. No cut-off for these calls is given here.

What was measured:
[1] = target: T1, Adenosine receptor A2b (Homo sapiens, UniProt P29275); assay: Displacement of [3H]-MRS-1754 from human adenosine receptor A2b expressed in HEK293 cell membranes after 90 mins by liquid scintillation counting method
T1 sequence (P29275 whole entry): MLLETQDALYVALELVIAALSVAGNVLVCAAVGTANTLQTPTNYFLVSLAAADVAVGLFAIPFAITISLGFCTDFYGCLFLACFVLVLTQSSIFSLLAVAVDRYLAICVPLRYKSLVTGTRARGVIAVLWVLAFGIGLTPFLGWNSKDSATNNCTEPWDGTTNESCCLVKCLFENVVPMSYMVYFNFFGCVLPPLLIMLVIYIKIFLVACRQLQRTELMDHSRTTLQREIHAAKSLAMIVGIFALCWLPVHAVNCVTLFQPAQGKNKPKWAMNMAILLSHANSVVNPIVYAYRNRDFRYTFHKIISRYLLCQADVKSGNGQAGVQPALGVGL

[2] = target: T2, Adenosine receptor A1 (Homo sapiens) (UniProt P30542); assay: Displacement of [3H]DPCPX from human adenosine receptor A1 expressed in HEK293 cell membranes at 0.1 uM after 90 mins by liquid scintillation counting method relative to control
T2 sequence (whole entry): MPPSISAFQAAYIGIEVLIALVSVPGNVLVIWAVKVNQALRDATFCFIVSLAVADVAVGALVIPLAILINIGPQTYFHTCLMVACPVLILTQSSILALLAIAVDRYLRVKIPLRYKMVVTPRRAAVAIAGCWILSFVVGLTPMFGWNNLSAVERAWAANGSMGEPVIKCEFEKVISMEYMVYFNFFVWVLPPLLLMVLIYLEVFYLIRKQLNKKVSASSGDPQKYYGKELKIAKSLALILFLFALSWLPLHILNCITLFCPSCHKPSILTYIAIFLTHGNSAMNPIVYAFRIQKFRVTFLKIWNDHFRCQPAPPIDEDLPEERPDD

[3] = target: T3, Adenosine receptor A2a (Homo sapiens, UniProt P29274); assay: Displacement of [3H]-ZM-241385 from human adenosine receptor A2a expressed in HEK293 cell membranes at 0.1 uM after 90 mins by liquid scintillation counting method relative to control
T3 sequence (P29274 whole entry): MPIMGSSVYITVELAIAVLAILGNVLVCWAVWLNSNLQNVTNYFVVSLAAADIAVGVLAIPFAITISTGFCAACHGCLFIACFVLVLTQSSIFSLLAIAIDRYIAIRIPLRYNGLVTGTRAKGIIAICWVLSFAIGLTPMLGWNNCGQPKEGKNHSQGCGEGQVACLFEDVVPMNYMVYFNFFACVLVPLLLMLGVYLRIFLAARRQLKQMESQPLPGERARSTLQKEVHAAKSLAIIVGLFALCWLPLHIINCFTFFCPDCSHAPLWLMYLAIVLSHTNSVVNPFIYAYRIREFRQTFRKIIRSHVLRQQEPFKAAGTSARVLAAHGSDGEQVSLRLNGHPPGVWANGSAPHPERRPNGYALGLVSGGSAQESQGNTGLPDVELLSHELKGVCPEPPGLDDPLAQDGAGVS

[4] = target: T4, Adenosine receptor A3 (Homo sapiens) (UniProt P0DMS8); assay: Displacement of [3H]-HEM-ADO from human adenosine receptor A3 expressed in HEK293 cell membranes at 1 uM after 90 mins by liquid scintillation counting method relative to control
T4 sequence (whole entry): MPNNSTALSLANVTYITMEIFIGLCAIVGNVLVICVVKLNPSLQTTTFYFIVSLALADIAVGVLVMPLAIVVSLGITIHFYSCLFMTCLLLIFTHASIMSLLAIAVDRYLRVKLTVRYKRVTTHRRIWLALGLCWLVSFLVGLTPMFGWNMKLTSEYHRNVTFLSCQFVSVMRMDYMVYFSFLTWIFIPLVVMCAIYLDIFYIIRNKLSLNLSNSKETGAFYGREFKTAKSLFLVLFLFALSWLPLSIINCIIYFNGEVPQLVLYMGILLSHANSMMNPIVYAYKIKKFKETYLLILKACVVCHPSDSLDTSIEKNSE

[5] = tested on: Liver; assay: Metabolic stability in mouse liver microsomes assessed as metabolic rate per mg protein preincubated for 5 mins followed by NADPH addition measured up to 30 mins by LC-MS/MS analysis; format: ADME, microsome; settings: 0.5 h
[6] = tested on: Liver; assay: Metabolic stability in human liver microsomes assessed as metabolic rate per mg protein preincubated for 5 mins followed by NADPH addition measured up to 30 mins by LC-MS/MS analysis; format: ADME, microsome; settings: 0.5 h
[7] = target: T5, Adenosine receptor A1 (Homo sapiens, UniProt P30542); assay: Displacement of [3H]DPCPX from human adenosine receptor A1 expressed in HEK293 cell membranes after 90 mins by liquid scintillation counting method
T5 sequence (P30542 whole entry): T2 sequence (whole entry)

[8] = target: T3, Adenosine receptor A2a; assay: Displacement of [3H]-ZM-241385 from human adenosine receptor A2a expressed in HEK293 cell membranes after 90 mins by liquid scintillation counting method
[9] = species: Homo sapiens; assay: Selectivity ratio of Ki for human adenosine receptor A1 expressed in HEK293 cell membranes to Ki for human adenosine receptor A2b expressed in HEK293 cell membranes; format: cell-based
[10] = species: Homo sapiens; assay: Selectivity ratio of Ki for human adenosine receptor A2a expressed in HEK293 cell membranes to Ki for human adenosine receptor A2b expressed in HEK293 cell membranes; format: cell-based
[11] = target: T1, Adenosine receptor A2b; assay: Antagonist activity at human adenosine receptor A2b expressed in HEK293 cells assessed as inhibition of NECA-induced cAMP level preincubated for 15 mins followed by NECA stimulation for 15 mins by HTRF assay; format: functional, cell-based
[12] = Cmax in C57BL/6J mouse at 10 mg/kg, po via gavage by LC-MS/MS analysis; format: ADME, organism-based; set-up: dose 10 mg/kg, route oral; settings: in vivo
[13] = AUC(0 to t) in C57BL/6J mouse at 10 mg/kg, po via gavage by LC-MS/MS analysis; format: ADME, organism-based; settings: in vivo
[14] = Half life in C57BL/6J mouse at 10 mg/kg, po via gavage by LC-MS/MS analysis; format: ADME, organism-based; settings: in vivo
[15] = Oral bioavailability in C57BL/6J mouse at 10 mg/kg via gavage by LC-MS/MS analysis; format: ADME, organism-based; settings: in vivo
[16] = Solubility of the compound; format: physicochemical
[17] = Inhibition of CYP450 (unknown origin); format: ADME, Homo sapiens
[18] = tested on: MDCK; assay: Cytotoxicity against MDCK cells; settings: Canis lupus familiaris
[19] = tested on: HepG2; assay: Cytotoxicity against human HepG2 cells
[20] = tested on: Mus musculus; assay: (§1) Antiallergic activity in Balb/c mouse model of ovalbumin-induced allergic asthma assessed as inhibition of NECA-induced airway hyperresponsiveness in ovalbumin sensitized mouse at 3 mg/kg, ip bid administered 1 hr before OVA challenge for 60 mins followed by test compound treatment 5 hrs after OVA challenge on day 12 to 15 measured on day 15; format: functional, organism-based
[21] = tested on: Mus musculus; assay: as §1, with “total cell count in BALF” for “NECA-induced airway hyperresponsiveness”; format: functional, organism-based

SMILES	Ki [1] [nM]	inhibition [2] [%]	inhibition [3] [%]	inhibition [4] [%]	Drug metabolism [5] [nmol/min/mg]	Drug metabolism [6] [nmol/min/mg]	Ki [7] [nM]	Ki [8] [nM]	Ratio Ki [9]	Ratio Ki [10]	Ki [11] [nM]	solubility [16]	further results
CCCn1c(=O)c2[nH]c(-c3cnn(CC4CC(=O)N(c5ccc(C(F)(F)F)cc5)C4)c3)nc2n(CC)c1=O (configuration not stated)	4	6	4	4	0.16	0.08	670	460	167	115	8		Cmax [12]: 3.8 µM; AUC(0-t) [13]: 2.9 µM·h; half-life [14]: 0.9 h; bioavailability [15]: 11%
CCCn1c(=O)c2[nH]c(-c3cc(OCC4CC(=O)N(c5ccc(C(F)(F)F)cc5)C4)no3)nc2n(CCC)c1=O (configuration not stated)	12.8	0	18	0	0.04	0.07	4200	2900	328	226	540		
CCCn1c(=O)c2[nH]c(-c3ccc(OCC4CC(=O)N(c5cccc(C(F)(F)F)c5)C4)cc3)nc2n(CCC)c1=O (configuration not stated)	7.5	1	80	13	0.06	0.09						Insoluble	
CCCn1c(=O)c2[nH]c(-c3ccc(OCC4CC(=O)N(c5cccc(C(F)(F)F)c5)C4)nc3)nc2n(CCC)c1=O (configuration not stated)	8.7	4	71	26	0	0.05						Insoluble	
CCCn1c(=O)c2[nH]c(-c3ccc(OCC4CC(=O)N(c5cccc(F)c5)C4)nc3)nc2n(CCC)c1=O (configuration not stated)	4.6	17	85	53								Insoluble	
CCCn1c(=O)c2[nH]c(-c3cnn(CC4CC(=O)N(c5ccc(C(F)(F)F)cc5)C4)c3)nc2n(CCC)c1=O (configuration not stated)	1	49	52	0	0.16	0.02	108	124	108	124	0.9		Cmax [12]: 16.7 µM; AUC(0-t) [13]: 21 µM·h; half-life [14]: 2.4 h; bioavailability [15]: 27%
CCCn1c(=O)c2[nH]c(-c3ccc(OCC4CC(=O)N(c5cccc(F)c5)C4)cc3)nc2n(CCC)c1=O (configuration not stated)	9	33	89	19								Insoluble	
CCCn1c(=O)c2[nH]c(-c3ccc(OCC4CC(=O)N(c5ccc(C(F)(F)F)cc5)C4)nc3)nc2n(CCC)c1=O (configuration not stated)	3	25	46	0	0	0.02	> 800	53	> 266	17	71	Insoluble	
CCCn1c(=O)c2[nH]c(-c3cnn(CC4CC(=O)N(c5ccc(OC)cc5)C4)c3)nc2n(CC)c1=O (configuration not stated)	16	15	21	14	0.07	0.11	711	486	44	30	14		
CCCn1c(=O)c2[nH]c(-c3ccc(OCC4CC(=O)N(c5ccc(C(F)(F)F)cc5)C4)cc3)nc2n(CCC)c1=O (configuration not stated)	1	29	60	23	0.01	0.05						Insoluble	
CCCn1c(=O)c2[nH]c(-c3ccc(OCC4CC(=O)N(c5ccc(F)cc5)C4)nc3)nc2n(CCC)c1=O (configuration not stated)	4	30	80	53								Insoluble	
CCCn1c(=O)c2[nH]c(-c3ccc(OCC4CC(=O)N(c5ccc(F)cc5)C4)cc3)nc2n(CCC)c1=O (configuration not stated)	5.4	29	89	44								Insoluble	
CCCn1c(=O)c2[nH]c(-c3cnn(CC4CC(=O)N(c5ccc(F)cc5)C4)c3)nc2n(CC)c1=O (configuration not stated)	12	22	33	0	0.15	0	346	192	28	16	4		
CCCn1c(=O)c2[nH]c(-c3cnn(CC(=O)N4CCN(c5cccc(C(F)(F)F)c5)CC4)c3)nc2n(CCC)c1=O	1.5	32	37	0	0.04	0.16	177	57	118	38	4		Cmax [12]: 44 µM; AUC(0-t) [13]: 51 µM·h; half-life [14]: 1.9 h; bioavailability [15]: 65%; IC50 [17]: > 25000 nM; IC50 [18]: > 100000 nM; IC50 [19]: > 100000 nM; inhibition [20]: Active; inhibition [21]: Active
CCCn1c(=O)c2[nH]c(-c3cnn(CC4CCN(c5ccc(OC(F)(F)F)cc5)C4=O)c3)nc2n(CCC)c1=O (configuration not stated)	6 to 8	51	7	32	0.03	0.02	340	36	56	6	191		
